Results from publication PMC5515969, “Effects of 31 FDA approved small-molecule kinase inhibitors on isolated rat liver mitochondria” (Archives of Toxicology, 2016).
Where two headings read alike, the source gives them in different places.

Legend:
[1] = system: isolated rat liver mitochondria; assay: Mitochondrial oxygen consumption (glutamate/malate or succinate driven, state 4 and state 3); type: biochemical; conditions: DMSO treated samples set as 1; as to State 3 respiration driven by succinate at 10XCmax: key: 0 indicates that the drug had no effects (negative); as to State 3 respiration driven by succinate at 1XCmax: key: 0 indicates that the drug had no effects (negative)
Summary of the method: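 Rat liver mitochondria (1 mg/ml protein) exposed 5 min to kinase inhibitors in 0.1% DMSO, then O2 consumption measured by Clark-type electrode with glutamate/malate or succinate (state 4), ADP added after 3 min (state 3). Rates normalized to 0.1% DMSO controls set to 1.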

RCC I = RCC I activity in submitochondrial particles; type: biochemical, rat; parameters: key to RCC I at 10XCmax / RCC I at 100XCmax / RCC I at 50XCmax / RCC I at 30XCmax / RCC I at 20XCmax: activity relative to DMSO-treated controls (control set as 1 = 100%); conditions: 10XCmax; DMSO treated samples set as 1
Summary of the method: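 Abs 340 nm (I/V) or 600 nm (II), 1-min reads × 6 min; 550 nm (III, IV), 10-s reads × 2 min. RCC I = rotenone-free minus rotenone rate. DMSO control = 1.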

RCC II = biological target: T1, RCC II (Rattus norvegicus, UniProt P21913+Q641Z9+Q6PCT8+Q920L2); assay: RCC II activity in submitochondrial particles; type: biochemical; parameters: key: activity relative to DMSO-treated controls (control set as 1 = 100%); conditions: DMSO treated samples set as 1
T1 construct: Submitochondrial particles were prepared by subjecting the intact mitochondria to three successive freeze–thaw cycles; from tissue; host or cells: rat liver mitochondria, used as submitochondrial particles
T1 sequence (Q920L2 35-656): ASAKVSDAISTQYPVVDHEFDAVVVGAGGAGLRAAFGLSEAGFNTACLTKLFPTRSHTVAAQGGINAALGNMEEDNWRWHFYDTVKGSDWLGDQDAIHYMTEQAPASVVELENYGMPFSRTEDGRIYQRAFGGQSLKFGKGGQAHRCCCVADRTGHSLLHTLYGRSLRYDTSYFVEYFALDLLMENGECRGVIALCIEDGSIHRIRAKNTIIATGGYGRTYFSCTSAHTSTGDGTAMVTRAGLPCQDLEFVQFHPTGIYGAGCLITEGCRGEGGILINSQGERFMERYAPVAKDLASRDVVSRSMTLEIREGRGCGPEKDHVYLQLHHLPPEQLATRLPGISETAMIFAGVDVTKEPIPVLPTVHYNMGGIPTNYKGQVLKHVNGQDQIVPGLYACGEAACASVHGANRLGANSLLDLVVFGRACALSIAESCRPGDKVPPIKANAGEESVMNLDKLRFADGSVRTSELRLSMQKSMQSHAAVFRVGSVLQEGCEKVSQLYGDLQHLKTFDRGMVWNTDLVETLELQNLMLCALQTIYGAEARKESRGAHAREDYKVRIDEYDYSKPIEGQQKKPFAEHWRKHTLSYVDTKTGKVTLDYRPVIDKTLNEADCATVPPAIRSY
T1 sequence (P21913 31-282): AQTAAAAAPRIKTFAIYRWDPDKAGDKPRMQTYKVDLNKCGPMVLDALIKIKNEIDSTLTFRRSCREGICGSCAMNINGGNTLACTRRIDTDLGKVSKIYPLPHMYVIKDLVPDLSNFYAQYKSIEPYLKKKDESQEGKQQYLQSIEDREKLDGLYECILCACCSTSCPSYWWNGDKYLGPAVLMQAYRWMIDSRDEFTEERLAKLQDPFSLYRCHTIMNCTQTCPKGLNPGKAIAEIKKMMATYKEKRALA
T1 sequence (Q641Z9 1-169): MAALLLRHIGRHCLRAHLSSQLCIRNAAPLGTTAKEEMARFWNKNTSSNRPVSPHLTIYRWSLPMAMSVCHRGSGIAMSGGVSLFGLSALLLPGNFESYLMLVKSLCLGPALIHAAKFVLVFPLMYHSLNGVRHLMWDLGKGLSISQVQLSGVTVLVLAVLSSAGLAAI
T1 sequence (Q6PCT8 57-159): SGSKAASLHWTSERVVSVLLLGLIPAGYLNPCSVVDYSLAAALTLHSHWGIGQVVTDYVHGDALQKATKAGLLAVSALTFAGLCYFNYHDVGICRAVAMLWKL
Summary of the method: (§1)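 Kinase inhibitors were preincubated 15 min with submitochondrial particles (1 mg/ml) before complex activities were measured. RCC I was the rotenone-sensitive portion (activity without minus with rotenone). RCC I/V was read at 340 nm and RCC II at 600 nm every 1 min for 6 min. RCC III and IV were read at 550 nm every 10 s for 2 min. Activities are normalized to DMSO controls set as 1.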

RCC III = RCC III activity in submitochondrial particles; type: biochemical, rat; parameters: key to RCC III at 100XCmax: activity relative to DMSO-treated controls (control set as 1 = 100%); conditions: 100XCmax
Summary of the method: as §1

RCC IV = RCC IV activity in submitochondrial particles; type: biochemical, rat; parameters: key to RCC IV at 50XCmax / RCC IV at 100XCmax: activity relative to DMSO-treated controls (control set as 1 = 100%); conditions: 50XCmax; DMSO treated samples set as 1; in %
Summary of the method: as §1

RCC V = RCC V activity in submitochondrial particles; type: biochemical, rat; conditions: DMSO treated samples set as 1; as to RCC V at 5XCmax: key: 0 indicates that the drug had no effects (negative)
Summary of the method: as §1

[2] = system: isolated rat liver mitochondria; assay: Mitochondrial inner membrane potential (MMP), Rhodamine 123; type: biochemical; conditions: difference in signal between KI and DMSO treated samples at the end of experiments
Source text: Fig. 3 KI effects on mitochondrial inner membrane potential (MMP). […] In a, c, data are means and standard derivations from three separate experiments. *p < 0.05 as compared to DMSO-treated samples at the end of experiments. In b, data are means of two independent experiments

[3] = system: isolated rat liver mitochondria; assay: Mitochondrial swelling (absorbance at 535 nm); type: biochemical; conditions: difference in signal between KI and DMSO treated samples at the end of experiments; as to Swelling 5XCmax: key: 0 indicates that the drug had no effects (negative)
[4] = read-out: Cmax at µM; human therapeutic maximal blood concentration; ref product labeling; cited from earlier work
[5] = cited from earlier work

CC(=O)Nc1cccc(-n2c(=O)n(C3CC3)c(=O)c3c(Nc4ccc(I)cc4F)n(C)c(=O)c(C)c32)c1 [Trametinib]
State 3 respiration driven by glutamate/malate at 1XCmax ([1]; 1XCmax): 0
State 3 respiration driven by succinate at 1XCmax ([1]; 1XCmax): 0
State 4 respiration driven by glutamate/malate at 1XCmax ([1]; 1XCmax): 0
State 4 respiration driven by succinate at 1XCmax ([1]; 1XCmax): 0
State 3 respiration driven by glutamate/malate at 2.5XCmax ([1]; 2.5XCmax): 0
State 3 respiration driven by succinate at 2.5XCmax ([1]; 2.5XCmax): 0
State 4 respiration driven by glutamate/malate at 2.5XCmax ([1]; 2.5XCmax): 0
State 4 respiration driven by succinate at 2.5XCmax ([1]; 2.5XCmax): 0
State 3 respiration driven by glutamate/malate at 5XCmax ([1]; 5XCmax): 0
State 3 respiration driven by succinate at 5XCmax ([1]; 5XCmax): 0
State 4 respiration driven by glutamate/malate at 5XCmax ([1]; 5XCmax): 0
State 4 respiration driven by succinate at 5XCmax ([1]; 5XCmax): 0
State 3 respiration driven by glutamate/malate at 10XCmax ([1]; 10XCmax): 0
State 3 respiration driven by succinate at 10XCmax ([1]; 10XCmax): 0
State 4 respiration driven by glutamate/malate at 10XCmax ([1]; 10XCmax): 0
State 4 respiration driven by succinate at 10XCmax ([1]; 10XCmax): 0
State 3 respiration driven by glutamate/malate at 20XCmax ([1]; 20XCmax): 0
State 3 respiration driven by succinate at 20XCmax ([1]; 20XCmax): 0
State 4 respiration driven by glutamate/malate at 20XCmax ([1]; 20XCmax): 0
State 4 respiration driven by succinate at 20XCmax ([1]; 20XCmax): 0
State 3 respiration driven by glutamate/malate at 30XCmax ([1]; 30XCmax): 0
State 3 respiration driven by succinate at 30XCmax ([1]; 30XCmax): 0
State 4 respiration driven by glutamate/malate at 30XCmax ([1]; 30XCmax): 0
State 4 respiration driven by succinate at 30XCmax ([1]; 30XCmax): 0
State 3 respiration driven by glutamate/malate at 50XCmax ([1]; 50XCmax): 0
State 3 respiration driven by succinate at 50XCmax ([1]; 50XCmax): 0
State 4 respiration driven by glutamate/malate at 50XCmax ([1]; 50XCmax): 0
State 4 respiration driven by succinate at 50XCmax ([1]; 50XCmax): 0
State 3 respiration driven by glutamate/malate at 100XCmax ([1]; 100XCmax): 0
State 3 respiration driven by succinate at 100XCmax ([1]; 100XCmax): 0
State 4 respiration driven by glutamate/malate at 100XCmax ([1]; 100XCmax): 0
State 4 respiration driven by succinate at 100XCmax ([1]; 100XCmax): 0
RCC I at 10XCmax (RCC I): 0
RCC II at 1.0XCmax (RCC II; 1.0XCmax): 0
RCC II at 2.5XCmax (RCC II; 2.5XCmax): 0
RCC II at 5XCmax (RCC II; 5XCmax): 0
RCC II at 10XCmax (RCC II; 10XCmax): 0
RCC II at 20XCmax (RCC II; 20XCmax): 0
RCC II at 30XCmax (RCC II; 30XCmax): 0
RCC II at 50XCmax (RCC II; 50XCmax): 0
RCC II at 100XCmax (RCC II; 100XCmax): 0
RCC III at 100XCmax (RCC III): 0
RCC IV at 50XCmax (RCC IV): 0
RCC V at 5XCmax (RCC V; 5XCmax): 0
RCC V at 50XCmax (RCC V; 50XCmax): 0
MMP measured by Rhodamine 123 at 1XCmax ([2]; 1XCmax): 0
MMP measured by Rhodamine 123 at 2.5XCmax ([2]; 2.5XCmax): 0
MMP measured by Rhodamine 123 at 5XCmax ([2]; 5XCmax): 0
MMP measured by Rhodamine 123 at 10XCmax ([2]; 10XCmax): 0
MMP measured by Rhodamine 123 at 20XCmax ([2]; 20XCmax): 0
MMP measured by Rhodamine 123 at 30XCmax ([2]; 30XCmax): 0
MMP measured by Rhodamine 123 at 50XCmax ([2]; 50XCmax): 0
MMP measured by Rhodamine 123 at 100XCmax ([2]; 100XCmax): 0
Swelling 1XCmax ([3]; 1XCmax): 0
Swelling 2.5XCmax ([3]; 2.5XCmax): 0
Swelling 5XCmax ([3]; 5XCmax): 0
Swelling 10XCmax ([3]; 10XCmax): 0
Swelling 20XCmax ([3]; 20XCmax): 0
Swelling 30XCmax ([3]; 30XCmax): 0
Swelling 50XCmax ([3]; 50XCmax): 0
Swelling 100XCmax ([3]; 100XCmax): 0
Cmax [4]: 0.04 µM
DILI potential (based on labeling) ([5]; 1 DILI positive, 0 negative according to labeling, ref product labeling): 0
DILI potential (based on labeling) ([5]; ref FDA product labeling): 0
